# Earlier results as cited in patent US12655468B2, “Genetic predictors of a response to treatment with CRHR1 antagonists” (HMNC Holding GmbH, priority 2015, dated 2026).
# Tested on: mice overexpressing CRH in the forebrain
smiles,measurement,value
COCC(COC)Nc1nc(C)nc2c(-c3ccc(Cl)cc3Cl)c(C)nn12 [DMP696],effect on increased REM sleep,could reverse the REM enhancement
